Measurements taken from ChEMBL document CHEMBL4507294, “Data for DCP probe MSD-CYP11B2” (2021).

Key:
[1] = target: Cyclin-dependent kinase 13 (Homo sapiens) (UniProt Q14004); details: Compound concentration 1000.0 nM
[2] = target: Vascular endothelial growth factor receptor 3 (Homo sapiens) (UniProt P35916); details: Compound concentration 1000.0 nM
[3] = target: MAP kinase-activated protein kinase 5 (Homo sapiens) (UniProt Q8IW41); details: Compound concentration 1000.0 nM
[4] = target: D(3) dopamine receptor (Homo sapiens) (UniProt P35462); details: Compound concentration 10.0 uM
[5] = target: Alpha-1B adrenergic receptor (Homo sapiens) (UniProt P35368); details: Compound concentration 10.0 uM
[6] = target: Serine/threonine-protein kinase Sgk3 (Homo sapiens) (UniProt Q96BR1); details: Compound concentration 1000.0 nM
[7] = target: Interferon-induced, double-stranded RNA-activated protein kinase (Homo sapiens) (UniProt P19525); details: Compound concentration 1000.0 nM
[8] = target: Cyclin-G-associated kinase (Homo sapiens) (UniProt O14976); details: Compound concentration 1000.0 nM
[9] = target: Megakaryocyte-associated tyrosine-protein kinase (Homo sapiens) (UniProt P42679); details: Compound concentration 1000.0 nM
[10] = target: RAF proto-oncogene serine/threonine-protein kinase (Homo sapiens) (UniProt P04049); details: Compound concentration 1000.0 nM
[11] = target: Beta-2 adrenergic receptor (Homo sapiens) (UniProt P07550); details: Compound concentration 10.0 uM
[12] = target: Tyrosine-protein kinase Mer (Homo sapiens) (UniProt Q12866); details: Compound concentration 1000.0 nM
Chain of Tyrosine-protein kinase Mer (Homo sapiens) (Q12866 whole entry): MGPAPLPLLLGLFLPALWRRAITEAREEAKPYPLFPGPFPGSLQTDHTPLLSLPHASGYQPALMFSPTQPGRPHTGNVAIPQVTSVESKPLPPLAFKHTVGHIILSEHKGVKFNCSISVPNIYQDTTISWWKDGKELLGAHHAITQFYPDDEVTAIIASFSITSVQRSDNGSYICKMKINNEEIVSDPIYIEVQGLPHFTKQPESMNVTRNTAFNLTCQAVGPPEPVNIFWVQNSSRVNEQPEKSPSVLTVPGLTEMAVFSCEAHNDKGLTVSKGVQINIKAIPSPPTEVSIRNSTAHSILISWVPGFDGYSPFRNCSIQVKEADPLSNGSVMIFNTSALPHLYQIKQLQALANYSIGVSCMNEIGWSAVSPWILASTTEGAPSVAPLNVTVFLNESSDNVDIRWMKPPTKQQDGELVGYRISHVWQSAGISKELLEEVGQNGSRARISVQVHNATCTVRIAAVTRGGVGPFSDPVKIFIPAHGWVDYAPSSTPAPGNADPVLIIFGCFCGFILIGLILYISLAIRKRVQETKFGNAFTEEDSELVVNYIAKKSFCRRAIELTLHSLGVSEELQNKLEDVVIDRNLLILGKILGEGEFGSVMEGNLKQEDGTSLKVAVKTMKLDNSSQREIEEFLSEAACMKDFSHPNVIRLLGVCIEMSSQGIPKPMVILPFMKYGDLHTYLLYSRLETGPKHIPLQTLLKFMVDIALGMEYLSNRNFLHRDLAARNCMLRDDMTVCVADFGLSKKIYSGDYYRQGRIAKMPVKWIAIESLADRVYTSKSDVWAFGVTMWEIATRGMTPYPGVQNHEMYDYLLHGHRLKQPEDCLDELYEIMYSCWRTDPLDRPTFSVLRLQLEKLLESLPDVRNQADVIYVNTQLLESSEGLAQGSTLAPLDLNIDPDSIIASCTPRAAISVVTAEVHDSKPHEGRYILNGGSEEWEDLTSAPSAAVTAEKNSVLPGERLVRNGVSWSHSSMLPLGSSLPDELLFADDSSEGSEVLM

[13] = target: Tyrosine-protein kinase JAK2 (Homo sapiens) (UniProt O60674); details: Compound concentration 1000.0 nM
[14] = target: Dual serine/threonine and tyrosine protein kinase (Homo sapiens) (UniProt Q6XUX3); details: Compound concentration 1000.0 nM
[15] = target: Macrophage-stimulating protein receptor (Homo sapiens) (UniProt Q04912); details: Compound concentration 1000.0 nM
[16] = target: BMP-2-inducible protein kinase (Homo sapiens) (UniProt Q9NSY1); details: Compound concentration 1000.0 nM
[17] = tested on: Receptor-type tyrosine-protein kinase FLT3 (Homo sapiens), P36888 [UNDEFINED MUTATION]; details: Compound concentration 1000.0 nM
[18] = tested on: Tyrosine-protein kinase ABL1 (Homo sapiens), P00519 [F317L]; details: Compound concentration 1000.0 nM
[19] = target: Protein kinase C eta type (Homo sapiens) (UniProt P24723); details: Compound concentration 1000.0 nM
[20] = tested on: Tyrosine-protein kinase ABL1 (Homo sapiens), P00519 [T315I]; details: Compound concentration 1000.0 nM
[21] = target: Calcium/calmodulin-dependent protein kinase type II subunit alpha (Homo sapiens) (UniProt Q9UQM7); details: Compound concentration 1000.0 nM
Chain of Calcium/calmodulin-dependent protein kinase type II subunit alpha (Homo sapiens) (Q9UQM7 whole entry, canonical isoform): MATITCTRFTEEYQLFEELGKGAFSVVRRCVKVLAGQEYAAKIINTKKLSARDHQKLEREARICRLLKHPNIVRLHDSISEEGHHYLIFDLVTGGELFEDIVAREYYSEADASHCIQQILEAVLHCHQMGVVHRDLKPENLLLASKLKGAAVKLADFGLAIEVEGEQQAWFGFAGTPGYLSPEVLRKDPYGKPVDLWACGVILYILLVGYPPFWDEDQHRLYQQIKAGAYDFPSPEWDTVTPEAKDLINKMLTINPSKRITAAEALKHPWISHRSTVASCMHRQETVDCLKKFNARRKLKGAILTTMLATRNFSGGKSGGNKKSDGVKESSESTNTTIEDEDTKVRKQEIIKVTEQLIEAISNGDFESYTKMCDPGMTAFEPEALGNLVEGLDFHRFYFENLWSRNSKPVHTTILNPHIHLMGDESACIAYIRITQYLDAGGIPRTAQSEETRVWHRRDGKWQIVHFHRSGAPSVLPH

[22] = target: Casein kinase I isoform delta (Homo sapiens) (UniProt P48730); details: Compound concentration 1000.0 nM
[23] = target: MAP kinase-activated protein kinase 2 (Homo sapiens) (UniProt P49137); details: Compound concentration 1000.0 nM
[24] = target: Insulin receptor-related protein (Homo sapiens) (UniProt P14616); details: Compound concentration 1000.0 nM
[25] = target: Serine/threonine-protein kinase PAK 4 (Homo sapiens) (UniProt O96013); details: Compound concentration 1000.0 nM
Chain of Serine/threonine-protein kinase PAK 4 (Homo sapiens) (O96013 whole entry, looked up): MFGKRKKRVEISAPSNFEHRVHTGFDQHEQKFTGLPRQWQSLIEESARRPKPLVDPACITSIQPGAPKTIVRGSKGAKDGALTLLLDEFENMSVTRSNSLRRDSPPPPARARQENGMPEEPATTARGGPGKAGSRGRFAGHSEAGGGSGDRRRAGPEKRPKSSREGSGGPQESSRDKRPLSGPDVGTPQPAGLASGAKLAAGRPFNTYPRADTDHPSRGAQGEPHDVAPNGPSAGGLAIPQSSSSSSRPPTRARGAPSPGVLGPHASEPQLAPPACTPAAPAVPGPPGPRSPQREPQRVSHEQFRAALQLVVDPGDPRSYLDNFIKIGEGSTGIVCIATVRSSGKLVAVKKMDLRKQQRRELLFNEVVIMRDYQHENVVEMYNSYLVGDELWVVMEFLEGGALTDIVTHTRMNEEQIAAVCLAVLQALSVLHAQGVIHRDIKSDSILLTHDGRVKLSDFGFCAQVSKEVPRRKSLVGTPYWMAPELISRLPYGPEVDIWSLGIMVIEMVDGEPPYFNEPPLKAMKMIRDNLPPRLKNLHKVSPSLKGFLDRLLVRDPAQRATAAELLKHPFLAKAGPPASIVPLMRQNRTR

[26] = target: Ephrin type-B receptor 4 (Homo sapiens) (UniProt P54760); details: Compound concentration 1000.0 nM
Chain of Ephrin type-B receptor 4 (Homo sapiens) (P54760 whole entry): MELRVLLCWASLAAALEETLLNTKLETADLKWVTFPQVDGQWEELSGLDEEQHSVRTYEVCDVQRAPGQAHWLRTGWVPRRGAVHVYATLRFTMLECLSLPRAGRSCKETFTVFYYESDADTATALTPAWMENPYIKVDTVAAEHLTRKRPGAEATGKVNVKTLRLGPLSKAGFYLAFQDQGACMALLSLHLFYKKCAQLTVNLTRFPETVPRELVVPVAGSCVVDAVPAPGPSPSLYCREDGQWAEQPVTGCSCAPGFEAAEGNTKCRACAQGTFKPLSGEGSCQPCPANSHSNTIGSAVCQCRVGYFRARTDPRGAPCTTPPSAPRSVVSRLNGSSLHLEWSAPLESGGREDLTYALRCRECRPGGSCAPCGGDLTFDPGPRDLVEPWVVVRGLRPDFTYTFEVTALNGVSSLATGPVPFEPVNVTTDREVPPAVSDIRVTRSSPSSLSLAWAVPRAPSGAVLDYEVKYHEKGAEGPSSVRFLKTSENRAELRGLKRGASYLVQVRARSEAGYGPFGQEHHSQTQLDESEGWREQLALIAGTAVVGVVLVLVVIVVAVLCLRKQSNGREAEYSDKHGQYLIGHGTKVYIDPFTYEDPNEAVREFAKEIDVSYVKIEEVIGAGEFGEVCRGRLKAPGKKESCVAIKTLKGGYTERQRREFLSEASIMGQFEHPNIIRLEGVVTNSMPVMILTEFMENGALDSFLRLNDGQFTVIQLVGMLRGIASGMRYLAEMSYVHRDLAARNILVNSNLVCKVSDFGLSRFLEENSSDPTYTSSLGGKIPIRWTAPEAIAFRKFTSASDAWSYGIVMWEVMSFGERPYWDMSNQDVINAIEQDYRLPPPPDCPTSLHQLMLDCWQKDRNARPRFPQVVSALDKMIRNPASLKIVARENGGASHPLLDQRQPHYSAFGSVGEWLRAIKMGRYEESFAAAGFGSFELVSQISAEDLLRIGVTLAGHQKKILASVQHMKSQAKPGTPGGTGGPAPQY

[27] = tested on: Epidermal growth factor receptor (Homo sapiens), P00533 [UNDEFINED MUTATION]; details: Compound concentration 1000.0 nM
[28] = tested on: Phosphatidylinositol 4,5-bisphosphate 3-kinase catalytic subunit alpha isoform (Homo sapiens), P42336 [E545A]; details: Compound concentration 1000.0 nM
[29] = tested on: Tyrosine-protein kinase ABL1 (Homo sapiens), P00519 [H396P]; details: Compound concentration 1000.0 nM
[30] = tested on: Leucine-rich repeat serine/threonine-protein kinase 2 (Homo sapiens), Q5S007 [G2019S]; details: Compound concentration 1000.0 nM
[31] = target: Fibroblast growth factor receptor 2 (Homo sapiens) (UniProt P21802); details: Compound concentration 1000.0 nM
Chain of Fibroblast growth factor receptor 2 (Homo sapiens) (P21802 22-821 limits assumed): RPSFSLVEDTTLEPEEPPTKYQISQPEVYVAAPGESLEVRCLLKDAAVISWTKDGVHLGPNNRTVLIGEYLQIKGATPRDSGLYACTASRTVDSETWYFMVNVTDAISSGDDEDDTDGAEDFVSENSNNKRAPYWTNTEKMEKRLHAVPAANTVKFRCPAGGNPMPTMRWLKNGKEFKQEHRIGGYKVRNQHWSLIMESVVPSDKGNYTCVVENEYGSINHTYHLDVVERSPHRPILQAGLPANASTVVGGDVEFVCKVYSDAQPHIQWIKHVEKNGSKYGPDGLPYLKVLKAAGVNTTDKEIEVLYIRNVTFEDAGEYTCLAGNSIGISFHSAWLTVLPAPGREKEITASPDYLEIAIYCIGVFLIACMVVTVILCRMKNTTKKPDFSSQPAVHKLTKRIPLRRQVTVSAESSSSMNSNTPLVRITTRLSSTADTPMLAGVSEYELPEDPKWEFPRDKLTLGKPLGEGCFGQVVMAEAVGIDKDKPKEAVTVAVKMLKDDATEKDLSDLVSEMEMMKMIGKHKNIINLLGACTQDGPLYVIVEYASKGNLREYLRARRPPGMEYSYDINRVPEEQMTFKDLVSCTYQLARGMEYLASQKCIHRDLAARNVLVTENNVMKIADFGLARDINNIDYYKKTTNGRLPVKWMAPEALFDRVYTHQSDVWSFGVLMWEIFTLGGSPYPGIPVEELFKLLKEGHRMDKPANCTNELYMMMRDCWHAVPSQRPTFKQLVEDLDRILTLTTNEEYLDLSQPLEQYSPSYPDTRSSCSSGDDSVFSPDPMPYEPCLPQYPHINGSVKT

[32] = target: Interleukin-1 receptor-associated kinase 3 (Homo sapiens) (UniProt Q9Y616); details: Compound concentration 1000.0 nM
[33] = target: Myosin light chain kinase, smooth muscle (Homo sapiens) (UniProt Q15746); details: Compound concentration 1000.0 nM
[34] = target: Serine/threonine-protein kinase VRK2 (Homo sapiens) (UniProt Q86Y07); details: Compound concentration 1000.0 nM
[35] = target: LIM domain kinase 1 (Homo sapiens) (UniProt P53667); details: Compound concentration 1000.0 nM
[36] = tested on: Tyrosine-protein kinase ABL1 (Homo sapiens), P00519 [Q252H]; details: Compound concentration 1000.0 nM
[37] = target: Serine/threonine-protein kinase N1 (Homo sapiens) (UniProt Q16512); details: Compound concentration 1000.0 nM
[38] = target: Cyclin-dependent kinase 4 (Homo sapiens) (UniProt P11802); details: Compound concentration 1000.0 nM
[39] = target: Ribosomal protein S6 kinase alpha-2 (Homo sapiens) (UniProt Q15349); details: Compound concentration 1000.0 nM
[40] = target: Tyrosine-protein kinase Fes/Fps (Homo sapiens) (UniProt P07332); details: Compound concentration 1000.0 nM
[41] = target: TGF-beta receptor type-1 (Homo sapiens) (UniProt P36897); details: Compound concentration 1000.0 nM
[42] = target: Serine/threonine-protein kinase PAK 2 (Homo sapiens) (UniProt Q13177); details: Compound concentration 1000.0 nM
[43] = target: Serine/threonine-protein kinase 16 (Homo sapiens) (UniProt O75716); details: Compound concentration 1000.0 nM
[44] = target: Myosin light chain kinase (Homo sapiens) (UniProt Q32MK0); details: Compound concentration 1000.0 nM
[45] = target: Inhibitor of nuclear factor kappa-B kinase subunit epsilon (Homo sapiens) (UniProt Q14164); details: Compound concentration 1000.0 nM
Chain of Inhibitor of nuclear factor kappa-B kinase subunit epsilon (Homo sapiens) (Q14164 whole entry): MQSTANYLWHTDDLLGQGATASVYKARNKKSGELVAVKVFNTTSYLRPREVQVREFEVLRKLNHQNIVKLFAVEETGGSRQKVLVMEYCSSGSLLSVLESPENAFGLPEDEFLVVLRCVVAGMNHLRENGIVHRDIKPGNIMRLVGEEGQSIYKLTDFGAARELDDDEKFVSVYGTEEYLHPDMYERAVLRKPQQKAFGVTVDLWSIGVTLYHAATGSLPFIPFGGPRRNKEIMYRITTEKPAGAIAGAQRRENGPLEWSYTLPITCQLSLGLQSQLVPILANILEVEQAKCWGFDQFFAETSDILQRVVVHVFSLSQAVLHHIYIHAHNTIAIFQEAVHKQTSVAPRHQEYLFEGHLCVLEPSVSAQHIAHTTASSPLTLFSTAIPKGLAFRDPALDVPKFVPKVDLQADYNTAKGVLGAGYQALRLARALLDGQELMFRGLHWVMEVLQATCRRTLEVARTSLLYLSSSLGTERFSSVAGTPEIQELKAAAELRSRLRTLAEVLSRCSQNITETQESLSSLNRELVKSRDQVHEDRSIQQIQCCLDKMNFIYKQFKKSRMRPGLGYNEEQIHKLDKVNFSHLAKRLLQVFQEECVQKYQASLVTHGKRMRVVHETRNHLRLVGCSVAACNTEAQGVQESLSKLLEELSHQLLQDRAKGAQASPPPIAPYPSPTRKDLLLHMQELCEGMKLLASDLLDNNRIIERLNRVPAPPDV

Chain of MAP kinase-activated protein kinase 5 (Homo sapiens) (Q8IW41 whole entry): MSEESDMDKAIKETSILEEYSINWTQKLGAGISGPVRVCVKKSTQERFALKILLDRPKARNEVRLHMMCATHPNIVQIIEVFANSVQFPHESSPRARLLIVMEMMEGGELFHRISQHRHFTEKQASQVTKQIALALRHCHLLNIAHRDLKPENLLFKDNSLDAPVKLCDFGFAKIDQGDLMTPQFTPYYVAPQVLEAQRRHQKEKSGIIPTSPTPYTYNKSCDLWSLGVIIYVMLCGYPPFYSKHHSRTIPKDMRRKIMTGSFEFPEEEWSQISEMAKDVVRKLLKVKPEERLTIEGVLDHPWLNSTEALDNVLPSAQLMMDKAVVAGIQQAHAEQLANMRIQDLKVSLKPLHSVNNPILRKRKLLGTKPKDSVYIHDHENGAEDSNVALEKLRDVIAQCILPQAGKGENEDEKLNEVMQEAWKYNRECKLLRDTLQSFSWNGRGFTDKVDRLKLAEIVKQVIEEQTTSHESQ

CC(C)(O)c1cncc(-c2nc3ccc(F)cc3n2C2CC2)c1 [MSD-CYP11B2]
inactive: residual activity [1] 96% | residual activity [2] 100% | residual activity [3] 100% | inhibition [4] -6.18% | inhibition [5] 23.8% | residual activity [6] 100% | residual activity [7] 91% | residual activity [8] 100% | residual activity [9] 100% | residual activity [10] 83% | inhibition [11] 2.65% | residual activity [12] 96% | residual activity [13] 100% | residual activity [14] 100% | residual activity [15] 100% | residual activity [16] 100% | residual activity [17] 100% | residual activity [18] 100% | residual activity [19] 98% | residual activity [20] 100% | residual activity [21] 94% | residual activity [22] 100% | residual activity [23] 100% | residual activity [24] 100% | residual activity [25] 100% | residual activity [26] 100% | residual activity [27] 100% | residual activity [28] 90% | residual activity [29] 85% | residual activity [30] 100% | residual activity [31] 100% | residual activity [32] 100% | residual activity [33] 80% | residual activity [34] 100% | residual activity [35] 100% | residual activity [36] 89% | residual activity [37] 100% | residual activity [38] 100% | residual activity [39] 100% | residual activity [40] 100% | residual activity [41] 90% | residual activity [42] 100% | residual activity [43] 100% | residual activity [44] 87% | residual activity [45] 100%

FC(F)(F)c1ccc2c(c1)nc(-c1cccnc1)n2C1CC1 [MSD-CYP11B2-Negative-control]
inactive: residual activity [1] 100% | residual activity [2] 91% | residual activity [3] 97% | inhibition [4] -1.96% | inhibition [5] 11.7% | residual activity [6] 100% | residual activity [7] 89% | residual activity [8] 100% | residual activity [9] 100% | residual activity [10] 76% | inhibition [11] 1.56% | residual activity [12] 79% | residual activity [13] 100% | residual activity [14] 100% | residual activity [15] 100% | residual activity [16] 100% | residual activity [17] 100% | residual activity [18] 100% | residual activity [19] 100% | residual activity [20] 100% | residual activity [21] 88% | residual activity [22] 100% | residual activity [23] 100% | residual activity [24] 100% | residual activity [25] 100% | residual activity [26] 100% | residual activity [27] 100% | residual activity [28] 90% | residual activity [29] 82% | residual activity [30] 100% | residual activity [31] 100% | residual activity [32] 100% | residual activity [33] 100% | residual activity [34] 100% | residual activity [35] 100% | residual activity [36] 81% | residual activity [37] 100% | residual activity [38] 100% | residual activity [39] 100% | residual activity [40] 100% | residual activity [41] 78% | residual activity [42] 100% | residual activity [43] 100% | residual activity [44] 100% | residual activity [45] 100%
